Source: US20260273072A1, “NOVEL PLK1 DEGRADATION INDUCING COMPOUND” (UPPTHERA, INC., priority 2023, published 2026)
Read-outs that look alike come from different tables or passages of the source.

Columns and labels:
Format in all cases: cell-based
NCI-H69 cell line = test: Cell viability assay for NCI-H69 cell line (EZ-Cytox); conditions: Homo sapiens, NCI-H69, 120 h; H69 cells, 5 days, 3000 nM to 0.46 nM
Description: (§1) 3. Cell Viability Assay for NCI-H69, NCI-H526 Cell Lines
(§2) (1) Culture of NCI-H69, NCI-H526 Cell Lines
(§3) The NCI-H69 (hereafter H69) and NCI-H526 (hereafter H526) cell lines were purchased from KCLB.
(§4) (2) Treatment of Compounds of the Present Invention and Method of Cell Viability Assay
(§5) After treating the compound to each well to make the total volume of 200 μl, it was cultured in a CO2 incubator (Thermo Fisher Scientific) for 5 days. […] The absorbance of the completely cultured sample was measured by setting the wavelength of a plate reader (BMG Labtech) to […], and was measured after shaking for 3 minutes in a plate reader before measurement.
(§6) The results of cell viability for H526 and H69 cell line are shown in Table 3 and Table 4, respectively.
(§7) In Table 3 and Table 4, Activity represents IC50 value of each Exemplary Compound treatment group to H526 and H69 cell line, respectively (A: <30 nM, B: <50 nM, C: <100 nM, D: <200 nM, E: <400 nM).

NCI-H526 cell line = test: Cell viability assay for NCI-H526 cell line (EZ-Cytox); conditions: Homo sapiens, NCI-H526, 120 h; H526 cells, 5 days, 3000 nM to 0.46 nM
Description: as §1, §2, §3, §4, §5, §6, §7

MRC-5 cell line = test: Cell viability assay for MRC-5 cell line (EZ-Cytox); conditions: for IC50: Homo sapiens, MRC5, 120 h
Description: 4. Cell Viability Assay for MRC-5 Cell Line
(1) Culture of MRC-5 Cell Line
The MRC-5 cell line was purchased from KCLB. Passage of cultured cells was maintained within P15.
(2) Treatment of Compounds of the Present Invention
Then, it was cultured in 37° C. CO2 incubator (Thermo Fisher Scientific) for 5 days.
(3) Cytotoxicity Experiment
CO2 incubator for 4 hours.

PLK1 = target: T1, PLK1 (Homo sapiens, UniProt P53350); test: Luciferase assay for PLK1 in HeLa LgBit (Plk1-HiBit KI) cell line; conditions: 300 nM compound, luminescence after 9 hours
T1 construct: endogenous in cells; host or cells: HeLa LgBit (Plk1-HiBit KI): HeLa stably expressing LgBit, with a CRISPR/Cas9 knock-in of HiBit at the endogenous PLK1 locus
Description: 2. Luciferase Assay for PLK1
(1) Preparation and Culture of HeLa LgBit (Plk1-HiBit KI) Cell Line
A HeLa cell line in which the LgBit vector was transfected and expressed stably was prepared. Then, after constructing gRNA and donor to express the HiBit amino acid sequence behind the C-terminal of the PLK1 gene, which was inherent in the cell, it was inserted into the cell together with a vector capable of expressing CRISPR/Cas9. Only the cells in which the insertion was completed and knock-in had progressed were selected, sub-cultured and used.
For cell culture, DMEM (Gibco), FBS (Gibco), PS (Gibco), […] cell culture dish (SPL), […] cell culture dish (SPL), 96-well culture plate (SPL), PBS pH 7.4 (Gibco), TrypLE™ Express (Gibco), Cell counter (Thermo Fisher Scientific) and 0.4% Trypan Blue Solution (DYNEBIO) were used.
(2) Treatment of Compounds of the Present Invention and Method of Luciferase Assay
In the case of HeLa LgBit (Plk1-HiBit KI), the compounds were treated after being released after thymidine block, and the process was as follows. Thymidine (Sigma-Aldrich) was completely dissolved in ddH2O and used in the experiment. For thymidine block, the products were treated with 2 mM of thymidine and then incubated for 24 hours. For release and chemical treatment, the medium was suctioned and washed with 1×PBS. TrypLE™ (Gibco) was added and incubated in 37° C. CO2 incubator (Thermo Fisher Scientific) for 5 mins. Cells neutralized by adding complete media were counted through a counter. For each well of a 96-well culture plate (SPL), 3.3×10^4 cells and a total medium volume of 150 μl were seeded and incubated in a CO2 incubator.
Each cell line was incubated in a CO2 incubator for 18 hours, and Endurazine (Promega, Cat. No. N257B) was added to each well to make up 4% of the total volume. After adding compounds of Examples in a 96-well white plate (SPL) to a concentration of 300 nM, the wavelength of the plate reader (BMG Labtech, CLARIOstar Plus) was set to 470-480 nm, and then the luminescence was tracked in real time.
In Table 2, Activity represents the ratio of the luminescence value of each Exemplary Compound treatment group to DMSO treatment group (+++: <0.3, ++: <0.5, +: <0.7).

[1] = MRC-5 normal cell line, 5 days, 10000 nM to 1.52 nM, read-out: Activity: IC50 value, cell viability, MRC-5 cell line (Exemplary Compounds)
[2] = read-out: Activity: IC50 value, cell viability, MRC-5 cell line (Comparative Compounds)

T1 sequence (P53350 whole entry): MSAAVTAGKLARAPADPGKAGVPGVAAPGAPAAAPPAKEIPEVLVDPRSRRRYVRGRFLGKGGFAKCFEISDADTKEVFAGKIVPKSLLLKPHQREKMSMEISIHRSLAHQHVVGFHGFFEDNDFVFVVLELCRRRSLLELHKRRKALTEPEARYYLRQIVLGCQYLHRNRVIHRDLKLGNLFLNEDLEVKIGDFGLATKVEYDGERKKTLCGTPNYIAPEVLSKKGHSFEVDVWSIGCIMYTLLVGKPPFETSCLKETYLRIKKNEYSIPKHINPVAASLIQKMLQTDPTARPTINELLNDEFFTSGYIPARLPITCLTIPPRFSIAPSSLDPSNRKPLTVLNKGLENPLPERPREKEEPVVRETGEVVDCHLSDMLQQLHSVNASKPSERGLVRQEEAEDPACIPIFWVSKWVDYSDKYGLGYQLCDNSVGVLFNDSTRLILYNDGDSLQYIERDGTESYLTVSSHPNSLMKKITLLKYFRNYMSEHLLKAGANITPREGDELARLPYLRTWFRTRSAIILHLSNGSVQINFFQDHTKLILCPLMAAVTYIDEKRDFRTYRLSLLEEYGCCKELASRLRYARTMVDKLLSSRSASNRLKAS

Row | Structure (SMILES) | IC50 (NCI-H69 cell line) | IC50 (NCI-H526 cell line) | IC50 (MRC-5 cell line; [1]) | Activity: ratio of the luminescence value of compound treatment group to DMSO treatment group (PLK1) | IC50 (MRC-5 cell line; [2]) | Cytotoxicity in normal cell line versus cancer cell lines (in words) (MRC-5 cell line; MRC-5 normal cell line compared with cancer cell lines)
1 | COc1cc(C(=O)NC2CC3(CCN(CC4CCN(c5cc(F)c(NC6CCC(=O)NC6=O)cc5F)CC4)CC3)C2)c(F)cc1Nc1ncc2c(n1)N(C(C)C)CC(F)(F)C(=O)N2C (stereo not shown) [Compound 69, 4-((7,7-difluoro-9-isopropyl-5-methyl-6-oxo-6,7,8,9-tetrahydro-5H-pyrimido[4,5-b][1,4]diazepin-2-yl)amino)-N-(7-((1-(4-((2,6-dioxopiperidin-3-yl)amino)-2,5-difluorophenyl)piperidin-4-yl)methyl)-7-azaspiro[3.5]nonan-2-yl)-2-fluoro-5-methoxybenzamide] | < 50 nM | < 30 nM | > 10000 nM | ++ (++: <0.5) |  | 
2 | COc1cc(-c2nnc(N3CCC(CCN4CCN(c5cc(F)c(NC6CCC(=O)NC6=O)cc5F)CC4)CC3)o2)ccc1Nc1ncc2c(n1)N(C1CCCC1)CC(F)(F)C(=O)N2C (stereo not shown) [Compound 66, 3-((4-(4-(2-(1-(5-(4-((9-cyclopentyl-7,7-difluoro-5-methyl-6-oxo-6,7,8,9-tetrahydro-5H-pyrimido[4,5-b][1,4]diazepin-2-yl)amino)-3-methoxyphenyl)-1,3,4-oxadiazol-2-yl)piperidin-4-yl)ethyl)piperazin-1-yl)-2,5-difluorophenyl)amino)piperidine-2,6-dione] | < 200 nM | < 200 nM | > 10000 nM | ++ (++: <0.5) |  | 
3 | COc1cc(C(=O)NC2CC3(CCN(CC4CCN(c5cnc(C6CCC(=O)NC6=O)cc5C)CC4)CC3)C2)ccc1Nc1ncc2c(n1)N(C(C)C)CC(F)(F)C(=O)N2C (stereo not shown) [Compound 19, 4-((7,7-difluoro-9-isopropyl-5-methyl-6-oxo-6,7,8,9-tetrahydro-5H-pyrimido[4,5-b][1,4]diazepin-2-yl)amino)-N-(7-((1-(6-(2,6-dioxopiperidin-3-yl)-4-methylpyridin-3-yl)piperidin-4-yl)methyl)-7-azaspiro[3.5]nonan-2-yl)-3-methoxybenzamide] | < 30 nM | < 30 nM | > 10000 nM | ++ (++: <0.5) |  | 
4 | COc1cc(C(=O)NC2CCN(CCC3CCN(c4cc(F)c(NC5CCC(=O)NC5=O)cc4F)CC3)CC2)ccc1Nc1ncc2c(n1)N(C(C)C)CC(F)(F)C(=O)N2C (stereo not shown) [Compound 62, 4-((7,7-difluoro-9-isopropyl-5-methyl-6-oxo-6,7,8,9-tetrahydro-5H-pyrimido[4,5-b][1,4]diazepin-2-yl)amino)-N-(1-(2-(1-(4-((2,6-dioxopiperidin-3-yl)amino)-2,5-difluorophenyl)piperidin-4-yl)ethyl)piperidin-4-yl)-3-methoxybenzamide] | < 30 nM | < 30 nM |  | ++ (++: <0.5) |  | 
5 | COc1cc(C(=O)NC2CC3(CCN(CC4CCN(c5cc(F)c(NC6CCC(=O)NC6=O)cc5F)CC4)CC3)C2)ccc1Nc1ncc2c(n1)N(C1CCCC1)CC(F)(F)C(=O)N2C (stereo not shown) [Compound 70, 4-((9-cyclopentyl-7,7-difluoro-5-methyl-6-oxo-6,7,8,9-tetrahydro-5H-pyrimido[4,5-b][1,4]diazepin-2-yl)amino)-N-(7-((1-(4-((2,6-dioxopiperidin-3-yl)amino)-2,5-difluorophenyl)piperidin-4-yl)methyl)-7-azaspiro[3.5]nonan-2-yl)-3-methoxybenzamide] | < 30 nM | < 30 nM |  | +++ (+++: <0.3) |  | 
6 | CC[C@@H]1C(=O)N(C)c2cnc(Nc3ccc(C(=O)N[C@H]4CC[C@H](N5CCN(CC6CC6)CC5)CC4)cc3OC)nc2N1C(C)C [Comparative Compound 3, Volasertib, reference compound] |  |  |  |  | 2940 nM | 
7 | CCN1CC(F)(F)C(=O)N(C)c2cnc(Nc3ccc(C(=O)NC4CC5(CCN(CC6CCN(c7ccc(C8CCC(=O)NC8=O)cc7F)CC6)CC5)C4)cc3OC)nc21 (stereo not shown) [Compound 4, N(7-((1-(4-(2,6-dioxopiperidin-3-yl)-2-fluorophenyl)piperidin-4-yl)methyl)-7-azaspiro[3.5]nonan-2-yl)-4-((9-ethyl-7,7-difluoro-5-methyl-6-oxo-6,7,8,9-tetrahydro-5H-pyrimido[4,5-b][1,4]diazepin-2-yl)amino)-3-methoxybenzamide] | < 30 nM | < 30 nM | > 10000 nM |  |  | 
8 | CC[C@@H]1C(=O)N(C)c2cnc(Nc3ccc(C(=O)NC4CCN(C)CC4)cc3OC)nc2N1C1CCCC1 [Comparative Compound 2, BI2536, reference compound] |  |  |  |  | 3090 nM | 
9 | COc1cc(C(=O)NC2CC3(CCN(CCC4CCN(c5cc(F)c(NC6CCC(=O)NC6=O)cc5F)CC4)CC3)C2)ccc1Nc1ncc2c(n1)N(C(C)C)CC(F)(F)C(=O)N2C (stereo not shown) [Compound 61, 4-((7,7-difluoro-9-isopropyl-5-methyl-6-oxo-6,7,8,9-tetrahydro-5H-pyrimido[4,5-b][1,4]diazepin-2-yl)amino)-N-(7-(2-(1-(4-((2,6-dioxopiperidin-3-yl)amino)-2,5-difluorophenyl)piperidin-4-yl)ethyl)-7-azaspiro[3.5]nonan-2-yl)-3-methoxybenzamide] | < 30 nM | < 30 nM |  | ++ (++: <0.5) |  | 
10 | COc1cc(C(=O)NC2CC3(CCN(CCC4CCN(c5ccc(NC6CCC(=O)NC6=O)cc5F)CC4)CC3)C2)ccc1Nc1ncc2c(n1)N(C(C)C)CC(F)(F)C(=O)N2C (stereo not shown) [Compound 31, 4-((7,7-difluoro-9-isopropyl-5-methyl-6-oxo-6,7,8,9-tetrahydro-5H-pyrimido[4,5-b][1,4]diazepin-2-yl)amino)-N-(7-(2-(1-(4-((2,6-dioxopiperidin-3-yl)amino)-2-fluorophenyl)piperidin-4-yl)ethyl)-7-azaspiro[3.5]nonan-2-yl)-3-methoxybenzamide] | < 30 nM | < 30 nM |  | +++ (+++: <0.3) |  | 
11 | COc1cc(C(=O)NC2CCN(C)CC2)c(F)cc1Nc1ncc2c(n1)N(C1CCCC1)CC(F)(F)C(=O)N2C [Comparative Compound 4, TAK960, reference compound] |  |  |  |  | 9150 nM | 
12 | CC[C@@H]1C(=O)N(C)c2cnc(Nc3ccc(C(=O)NCCOCCOCCNc4cccc5c4C(=O)N(C4CCC(=O)NC4=O)C5=O)cc3OC)nc2N1C1CCCC1 (stereo partly shown) [Comparative Compound 1, reference compound] |  |  |  |  |  | exhibited a high level of cytotoxicity in normal cell line
